Laboratory results reported in patent publication US11279687B2, “Compounds and compositions for the inhibition of NAMPT” (Valo Health, Inc., priority 2010, dated 2022).
pIC50: −log10 of the molar value. Where two headings read alike, the source gives them in different places.

Tests used:
A2780 cells [1] = assay: In-vitro cell proliferation assay (SRB), A2780 cells; type: cell-based; conditions: A2780 cells, 72 hours, SRB, read-out: A2780 IC50;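 note: viable cell number read as SRB absorbance, background from media-only wells subtracted, IC50 interpolated from percent inhibition at two bracketing compound concentrations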
A2780 cells [2] = assay: A2780 xenograft study in mice; type: in vivo, C.B-17-Igh-1b-Prkdc^scid mice; conditions: female SCID mice, s.c. A2780 tumors, p.o. BID for 5 or 10 days, dose selected from MTD study
Experimental: C.B-17-Igh-1b-Prkdc^scid mice (female) were injected s.c. with 5×10^6 A2780 cells (NCI) in the left flank. 10-12 days later when tumors reached 100-200 mm3 in size, mice were randomized into treatment groups of 8 mice per group including vehicle control and reference standard groups. The compounds were formulated in 60:30:10 PEG-400:D5W: Ethanol and administered p.o., at the dose volume of 10 ml/kg BID for a duration of 5 or 10 days. The dose used for efficacy was selected from the MTD (Maximum Tolerated Dose) study. Mice were weighed and tumors measured using vernier calipers every alternate day. Tumor volume was calculated according to the formula (length×width^2)/2. All animal work was approved by the Institutional Animal Care and Use Committee of Biological Resource Centre, Singapore.

NAMPT = NAMPT (Homo sapiens (Human), UniProt P43490); assay: NAMPT biochemical inhibition assay (NMN quantified by mass spectrometry); conditions: NAMPT biochemical inhibition; read-out: Biochem IC50
NAMPT, sequence (P43490 whole entry): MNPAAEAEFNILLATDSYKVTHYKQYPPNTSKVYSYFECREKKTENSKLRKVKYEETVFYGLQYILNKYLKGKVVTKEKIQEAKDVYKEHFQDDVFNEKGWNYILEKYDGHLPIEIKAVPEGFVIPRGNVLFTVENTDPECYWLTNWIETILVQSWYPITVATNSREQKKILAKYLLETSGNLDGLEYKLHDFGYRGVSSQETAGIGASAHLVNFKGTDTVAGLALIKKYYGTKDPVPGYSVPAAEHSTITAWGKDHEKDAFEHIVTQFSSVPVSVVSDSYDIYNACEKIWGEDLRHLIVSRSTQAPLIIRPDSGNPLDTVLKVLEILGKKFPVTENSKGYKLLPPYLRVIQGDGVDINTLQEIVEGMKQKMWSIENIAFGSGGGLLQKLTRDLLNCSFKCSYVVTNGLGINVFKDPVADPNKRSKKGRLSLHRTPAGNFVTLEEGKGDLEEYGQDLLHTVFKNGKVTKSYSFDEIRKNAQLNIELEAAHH

pIC50 (A2780 cells [1]; Homo sapiens, A2780, 72 h)	pIC50 (NAMPT)	Structure (SMILES)	effect on tumor growth in A2780 xenograft (A2780 cells [2])	pIC50 (A2780 cells [1])
–	–	O=C(NCc1cccnc1)Nc1ccc(S(=O)(=O)c2ccccc2)cc1 [3-[4-(benzenesulfonyl)phenyl]-1-(pyridin-3-ylmethyl)urea]	tumor stasis	–
7.35	8.30	CCN(CC)C(=O)CN1CCN(S(=O)(=O)c2ccc(NC(=O)NCc3cccnc3)cc2)CC1 [N,N-diethyl-2-{4-[(4-{[(pyridin-3-ylmethyl)carbamoyl]amino}benzene)sulfonyl]piperazin-1-yl}acetamide]	–	–
6.79	8.05	CN(C)C(=O)C1CCN(S(=O)(=O)c2ccc(NC(=O)NCc3cccnc3)cc2)CC1 [N,N-dimethyl-1-[(4-{[(pyridin-3-ylmethyl)carbamoyl]amino}benzene)sulfonyl]piperidine-4-carboxamide]	–	–
7.26	7.80	CN(C)C(=O)c1ccccc1NS(=O)(=O)c1ccc(NC(=O)NCc2cccnc2)cc1 [N,N-dimethyl-2-[(4-{[(pyridin-3-ylmethyl)carbamoyl]amino}benzene)sulfonamido]benzamide]	–	–
7.28	8.30	CN(C)C(=O)c1ccc(S(=O)(=O)c2ccc(NC(=O)NCc3cccnc3)cc2)cc1 [N,N-dimethyl-4-[(4-{[(pyridin-3-ylmethyl)carbamoyl]amino}benzene)sulfonyl]benzamide]	–	–
8.01	4.94	O=C(NCc1ccc2ncsc2c1)c1ccc(S(=O)(=O)c2cccc(Cl)c2)cc1 [N-(1,3-benzothiazol-6-ylmethyl)-4-[(3-chlorobenzene)sulfonyl]benzamide]	–	–
7.43	8.52	CC(C)NC(=O)CN1CCN(S(=O)(=O)c2ccc(NC(=O)NCc3cccnc3)cc2)CC1 [N-(propan-2-yl)-2-{4-[(4-{[(pyridin-3-ylmethyl)carbamoyl]amino}benzene)sulfonyl]piperazin-1-yl}acetamide]	–	–
6.43	5.03	O=C(NCCc1cccnc1)c1ccc(S(=O)(=O)c2cccc(OC(F)(F)F)c2)cc1 [N-[2-(pyridin-3-yl)ethyl]-4-{[3-(trifluoromethoxy)benzene]sulfonyl}benzamide]	–	–
5.81	4.69	O=C(NCCc1cccnc1)c1ccc(S(=O)(=O)Nc2cccc(OC(F)(F)F)c2)cc1 [N-[2-(pyridin-3-yl)ethyl]-4-{[3-(trifluoromethoxy)phenyl]sulfamoyl[benzamide]	–	–
5.58	4.95	O=C(Nc1nc(-c2cccnc2)cs1)c1ccc(S(=O)(=O)N2CCc3ccccc3C2)cc1 [N-[4-(pyridin-3-yl)-1,3-thiazol-2-yl]-4-(1,2,3,4-tetrahydroisoquinoline-2-sulfonyl)benzamide]	–	–
6.00 to 7.00	8.17	CCNC(=O)c1cccc(S(=O)(=O)c2ccc(NC(=O)NCc3cccnc3)cc2)c1 [N-ethyl-3-[(4-{[(pyridin-3-ylmethyl)carbamoyl]amino[benzene)sulfonyl]benzamide]	–	–
7.40	8.89	CCNC(=O)c1ccc(S(=O)(=O)c2ccc(NC(=O)NCc3cccnc3)cc2)cc1 [N-ethyl-4-[(4-{[(pyridin-3-ylmethyl)carbamoyl]amino[benzene)sulfonyl]benzamide]	–	–
7.10	8.22	CCN(C(C)=O)[C@H]1CCN(S(=O)(=O)c2ccc(NC(=O)NCc3cccnc3)cc2)C1 [N-ethyl-N-[(3S)-1-[(4-{[(pyridin-3-ylmethyl)carbamoyl]amino}benzene)sulfonyl]pyrrolidin-3-yl]acetamide]	–	–
7.96	9.00	CNC(=O)c1ccccc1NS(=O)(=O)c1ccc(NC(=O)NCc2cccnc2)cc1 [N-methyl-2-[(4-{[(pyridin-3-ylmethyl)carbamoyl]amino}benzene)sulfonamido]benzamide]	–	–
7.08	8.42	CNC(=O)c1ccc(S(=O)(=O)c2ccc(NC(=O)NCc3cccnc3)cc2)cn1 [N-methyl-5-[(4-{[(pyridin-3-ylmethyl)carbamoyl]amino}benzene)sulfonyl]pyridine-2-carboxamide]	–	–
7.52	8.10	CN(C(=O)CN1CCN(S(=O)(=O)c2ccc(NC(=O)NCc3cccnc3)cc2)CC1)c1ccccc1 [N-methyl-N-phenyl-2-{4-[(4-{[(pyridin-3-ylmethyl)carbamoyl]amino}benzene)sulfonyl]piperazin-1-yl}acetamide]	–	–
7.40	8.82	CC(=O)Nc1cccc(S(=O)(=O)c2ccc(NC(=O)NCc3cccnc3)cc2)c1 [N-{3-[(4-{[(pyridin-3-ylmethyl)carbamoyl]amino}benzene)sulfonyl]phenyl}acetamide]	–	–
8.45	7.72	COc1cccc(S(=O)(=O)c2ccc(C(=O)NCc3ccc4nccn4c3)cc2)c1 [N-{imidazo[1,2-a]pyridin-6-ylmethyl}-4-[(3-methoxybenzene)sulfonyl]benzamide]	–	–
7.57	6.96	O=C(NCc1ccc2nccn2c1)c1ccc(S(=O)(=O)N2CC3CCC(C2)O3)cc1 [N-{imidazo[1,2-a]pyridin-6-ylmethyl}-4-{8-oxa-3-azabicyclo[3.2.1]octane-3-sulfonyl}benzamide]	–	–
8.74	6.86	O=C(NCc1ccc2nccn2c1)c1ccc(S(=O)(=O)c2cccc(OC(F)(F)F)c2)cc1 [N-{imidazo[1,2-a]pyridin-6-ylmethyl}-4-{[3-(trifluoromethoxy)benzene]sulfonyl}benzamide]	–	–
8.07	6.33	O=C(NCc1ccc2nccn2c1)c1ccc(S(=O)(=O)Nc2cccc(OC(F)(F)F)c2)cc1 [N-{imidazo[1,2-a]pyridin-6-ylmethyl}-4-{[3-(trifluoromethoxy)phenyl]sulfamoyl}benzamide]	–	–
8.36	8.15	O=C(NCc1ccc2nccn2c1)c1ccc(S(=O)(=O)c2cccc(C(F)(F)F)c2)cc1 [N-{imidazo[1,2-a]pyridin-6-ylmethyl}-4-{[3-(trifluoromethyl)benzene]sulfonyl}benzamide]	–	–
5.01	5.50	CC(C)(C)OC(=O)Nc1ccc(CNC(=O)Nc2ccc(S(=O)(=O)N3CCCCC3)cc2)cn1 [tert-butylN-{5-[({[4-(piperidine-1-sulfonyl)phenyl]carbamoyl}amino)methyl]pyridin-2-yl}carbamate]	–	–

Structure (SMILES)	pIC50 (A2780 cells [1]; Homo sapiens, A2780, 72 h)	pIC50 (NAMPT)	effect on tumor growth in A2780 xenograft (A2780 cells [2])	pIC50 (A2780 cells [1])
O=C(NCc1cccnc1)Nc1ccc(S(=O)(=O)N2CC3CCC(C2)O3)cc1 [1-(4-{8-oxa-3-azabicyclo[3.2.1]octane-3-sulfonyl}phenyl)-3-(pyridin-3-ylmethyl)urea]	7.54	–	tumor regression	–
O=C(NCc1ccc2nccn2c1)Nc1ccc(S(=O)(=O)c2ccccc2)cc1 [1-[4-(benzenesulfonyl)phenyl]-3-{imidazo[1,2-a]pyridin-6-ylmethyl}urea]	7.48	–	delayed tumor growth	–
CCN(CC)C(=O)[C@H]1CCCN(S(=O)(=O)c2ccc(NC(=O)NCc3cccnc3)cc2)C1 [(3S)-N,N-diethyl-1-[(4-{[(pyridin-3-ylmethyl)carbamoyl]amino}benzene)sulfonyl]piperidine-3-carboxamide]	–	8.22	–	7.60
CCN(CC)C(=O)c1ccccc1NS(=O)(=O)c1ccc(NC(=O)NCc2cccnc2)cc1 [N,N-diethyl-2-[(4-{[(pyridin-3-ylmethyl)carbamoyl]amino]benzene)sulfonamido]benzamide]	–	8.10	–	8.22
CCN(CC)C(=O)c1cc(F)cc(S(=O)(=O)c2ccc(NC(=O)NCc3cccnc3)cc2)c1 [N,N-diethyl-3-fluoro-5-[(4-{[(pyridin-3-ylmethyl)carbamoyl]amino[benzene)sulfonyl]benzamide]	–	8.92	–	8.82
CCN(CC)C(=O)c1ccc(F)c(S(=O)(=O)c2ccc(NC(=O)NCc3cccnc3)cc2)c1 [N,N-diethyl-4-fluoro-3-[(4-{[(pyridin-3-ylmethyl)carbamoyl]amino[benzene)sulfonyl]benzamide]	–	8.62	–	7.05
CN(C)C(=O)c1cccc(S(=O)(=O)c2ccc(NC(=O)NCc3cccnc3)cc2)c1 [N,N-dimethyl-3-[(4-{[(pyridin-3-ylmethyl)carbamoyl]amino[benzene)sulfonyl]benzamide]	–	8.13	–	6.00 to 7.00
O=C(NCc1cccnc1)Nc1ccc(S(=O)(=O)c2cccc(C(=O)NCCO)c2)cc1 [N-(2-hydroxyethyl)-3-[(4-{[(pyridin-3-ylmethyl)carbamoyl]amino[benzene)sulfonyl]benzamide]	–	8.11	–	6.00 to 7.00
CC(C)CNC(=O)c1cccc(S(=O)(=O)c2ccc(NC(=O)NCc3cccnc3)cc2)c1 [N-(2-methylpropyl)-3-[(4-{[(pyridin-3-ylmethyl)carbamoyl]amino[benzene)sulfonyl]benzamide]	–	8.01	–	6.00 to 7.00
CC(C)NC(=O)c1cccc(S(=O)(=O)c2ccc(NC(=O)NCc3cccnc3)cc2)c1 [N-(propan-2-yl)-3-[(4-{[(pyridin-3-ylmethyl)carbamoyl]amino[benzene)sulfonyl]benzamide]	–	8.00	–	6.00 to 7.00
O=C(NCc1cccnc1)Nc1ccc(S(=O)(=O)c2cccc(C(=O)NC3CCCC3)c2)cc1 [N-cyclopentyl-3-[(4-{[(pyridin-3-ylmethyl)carbamoyl]amino[benzene)sulfonyl]benzamide]	–	8.02	–	6.00 to 7.00
O=C(NCc1cccnc1)Nc1ccc(S(=O)(=O)c2cccc(C(=O)NC3CC3)c2)cc1 [N-cyclopropyl-3-[(4-{[(pyridin-3-ylmethyl)carbamoyl]amino[benzene)sulfonyl]benzamide]	–	8.19	–	6.00 to 7.00
